According to ChEMBL document CHEMBL3046467, “Structure-activity relationship of carboxin-related carboxamides as fungicide” (2011):

Legend:
Assay type in all cases: functional
Botrytis cinerea [1] = test: Fungicidal activity against Botryotinia fuckeliana spores inoculated on leaves of compound pre-treated seed-leaf stage kidney beans assessed as gray mold disease control level at 62.5 ppm measured after 4 days post fungal inoculation
Puccinia recondita [2] = test: Fungicidal activity against Puccinia recondita spores inoculated on leaves of compound pre-treated 1.5 leaf-stage wheat plants assessed as wheat brown rust disease control level at 25 ppm measured after 8 days post fungal inoculation
Pyricularia grisea [3] = test: Fungicidal activity against Magnaporthe grisea spores inoculated on leaves of compound pre-treated 2 or 3 leaf-stage rice plants assessed as rice blast disease control level at 250 ppm measured after 7 days post fungal inoculation
Podosphaera xanthii [4] = test: Fungicidal activity against Podosphaera xanthii (powdery mildew) spores inoculated on leaves of compound pre-treated 1.5 leaf-stage cucumber plants assessed as powdery mildew disease control level at 250 ppm measured after 7 days post fungal inoculation
Pyricularia grisea [5] = test: Fungicidal activity against Magnaporthe grisea spores inoculated on leaves of compound pre-treated 2 or 3 leaf-stage rice plants assessed as rice blast disease control level at 50 ppm measured after 7 days post fungal inoculation
Podosphaera xanthii [6] = test: Fungicidal activity against Podosphaera xanthii (powdery mildew) spores inoculated on leaves of compound pre-treated 1.5 leaf-stage cucumber plants assessed as powdery mildew disease control level at 25 ppm measured after 7 days post fungal inoculation
Botrytis cinerea [7] = test: Fungicidal activity against Botryotinia fuckeliana spores inoculated on leaves of compound pre-treated seed-leaf stage kidney beans assessed as gray mold disease control level at 500 ppm measured after 4 days post fungal inoculation
Puccinia recondita [8] = test: Fungicidal activity against Puccinia recondita spores inoculated on leaves of compound pre-treated 1.5 leaf-stage wheat plants assessed as wheat brown rust disease control level at 250 ppm measured after 8 days post fungal inoculation

| Structure (SMILES) | Activity (Botrytis cinerea [1]) | Activity (Puccinia recondita [2]) | Activity (Pyricularia grisea [3]) | Activity (Podosphaera xanthii [4]) | Activity (Pyricularia grisea [5]) | Activity (Podosphaera xanthii [6]) | Activity (Botrytis cinerea [7]) | Activity (Puccinia recondita [8]) |
| --- | --- | --- | --- | --- | --- | --- | --- | --- |
| CC1=C(C(=O)Nc2ccsc2C(C)CC(C)C)SCCO1 (configuration not stated) | >=95% | >=95% | >=95% | >=95% |  |  |  |  |
| CC1=C(C(=O)Nc2ccsc2C(C)CC(C)C)CCCO1 (configuration not stated) | >=95% | >=95% |  |  | >=95% | >=50% |  |  |
| CC(C)CC(C)c1sccc1NC(=O)c1ccccc1Cl (configuration not stated) |  | >=95% | <95% |  |  | >=50% | >=95% |  |
| CC(C)CC(C)c1sccc1NC(=O)c1nccnc1Cl (configuration not stated) | >=95% | >=95% | >=95% | <95% |  |  |  |  |
| Cc1occc1C(=O)Nc1ccsc1C(C)CC(C)C (configuration not stated) | >=95% | >=95% |  |  | >=95% | >=95% |  |  |
| CC(C)CC(C)c1sccc1NC(=O)c1cccnc1Cl (configuration not stated) | >=50% |  |  |  |  | >=95% |  |  |
| Cc1nc(C(F)F)c(C(=O)Nc2ccsc2C(C)CC(C)C)s1 (configuration not stated) | >=95% | >=95% |  |  | >=95% | >=95% |  |  |
| Cc1nc(C(F)(F)F)c(C(=O)Nc2ccsc2C(C)CC(C)C)s1 (configuration not stated) | >=95% | >=95% |  |  |  | >=95% |  |  |
| Cc1nn(C)cc1C(=O)Nc1ccsc1C(C)CC(C)C (configuration not stated) | >=95% | >=95% |  | >=95% | >=50% |  |  |  |
| CC(C)CC(C)c1sccc1NC(=O)c1cn(C)nc1Cl (configuration not stated) | >=95% | >=95% |  |  | >=50% | >=50% |  |  |
| CC(C)CC(C)c1sccc1NC(=O)c1cn(C)nc1C(F)F (configuration not stated) | >=95% | >=95% |  |  | >=95% | >=95% |  |  |
| CC(C)CC(C)c1ccccc1NC(=O)c1cn(C)nc1C(F)(F)F (configuration not stated) | >=95% | >=95% |  |  | >=95% | >=95% |  |  |
| Cc1ccsc1C(=O)Nc1ccsc1C(C)CC(C)C (configuration not stated) | >=95% | >=95% |  |  | >=95% | >=95% |  |  |
| CCC(C)CC(C)c1sccc1NC(=O)c1cn(C)nc1C(F)(F)F (configuration not stated) | >=50% | >=95% |  |  | >=95% | >=95% |  |  |
| CC(CC(C)(C)C)c1sccc1NC(=O)c1cn(C)nc1C(F)(F)F (configuration not stated) |  | >=95% | <95% |  |  | >=95% | <95% |  |
| Cc1nc(C)c(C(=O)Nc2ccsc2C(C)CC(C)C)s1 (configuration not stated) | >=95% | >=95% |  |  | >=95% | >=50% |  |  |
| CC(C)CCC(C)c1sccc1NC(=O)c1cn(C)nc1C(F)(F)F (configuration not stated) |  | >=95% | >=95% |  |  | >=50% | >=95% |  |
| CCCCCC(C)c1sccc1NC(=O)c1cn(C)nc1C(F)(F)F (configuration not stated) | >=50% | >=95% | <95% |  |  | >=50% |  |  |
| CCC(C)C(C)c1sccc1NC(=O)c1cn(C)nc1C(F)(F)F (configuration not stated) | >=95% | >=95% |  |  | >=50% | >=95% |  |  |
| CCCCC(C)c1sccc1NC(=O)c1cn(C)nc1C(F)(F)F (configuration not stated) | >=95% | >=95% | >=95% |  |  | >=50% |  |  |
| CCC(CC)c1sccc1NC(=O)c1cn(C)nc1C(F)(F)F | >=95% | >=50% | <95% | <95% |  |  |  |  |
| CC(C)CCc1sccc1NC(=O)c1cn(C)nc1C(F)(F)F | >=95% | >=95% |  |  |  | >=50% |  |  |
| CCc1sccc1NC(=O)c1cn(C)nc1C(F)(F)F |  |  |  |  |  |  | >=95% |  |

| Structure (SMILES) | Activity (Botrytis cinerea [1]) | Activity (Puccinia recondita [2]) | Activity (Pyricularia grisea [3]) | Activity (Podosphaera xanthii [4]) | Activity (Pyricularia grisea [5]) | Activity (Podosphaera xanthii [6]) | Activity (Botrytis cinerea [7]) | Activity (Puccinia recondita [8]) |
| --- | --- | --- | --- | --- | --- | --- | --- | --- |
| CCCC(C)c1sccc1NC(=O)c1cn(C)nc1C(F)(F)F (configuration not stated) | >=95% | >=95% | <95% |  |  | >=95% |  |  |
| Cn1cc(C(=O)Nc2ccsc2-c2ccccc2)c(C(F)(F)F)n1 | >=95% |  | <95% |  |  | >=50% |  | <95% |
| CCC(C)c1sccc1NC(=O)c1cn(C)nc1C(F)(F)F (configuration not stated) | >=95% | >=95% | <95% |  |  | >=50% |  |  |
| CC(C)c1sccc1NC(=O)c1cn(C)nc1C(F)(F)F | >=95% | >=95% | <95% | >=95% |  |  |  |  |
| CCC(C)c1ccccc1NC(=O)c1cn(C)nc1C(F)(F)F (configuration not stated) | >=95% | >=95% | <95% |  |  | >=50% |  |  |
| CC(C)c1ccccc1NC(=O)c1cn(C)nc1C(F)(F)F | >=95% | >=95% | <95% | >=95% |  |  |  |  |
| CC1CC(C)(C)c2cccc(NC(=O)c3cn(C)nc3C(F)(F)F)c21 (configuration not stated) | >=95% | >=95% | <95% | <95% |  |  |  |  |
| CC1CC(C)(C)c2cccc(NC(=O)c3cccnc3Cl)c21 (configuration not stated) | >=50% |  | <95% | <95% |  |  |  | <95% |
| CC1=C(C(=O)Nc2ccccc2-c2ccccc2)CCCO1 | >=50% | >=50% | <95% |  |  | >=95% |  |  |
| CC1=C(C(=O)Nc2ccccc2-c2ccccc2)SCCO1 | >=95% |  | <95% |  |  | >=50% |  | <95% |
| O=C(Nc1ccccc1-c1ccccc1)c1nccnc1Cl | >=95% |  | <95% | >=95% |  |  |  | <95% |
| O=C(Nc1ccccc1-c1ccccc1)c1cccnc1Cl | >=50% |  | <95% | <95% |  |  |  |  |
| Cc1nc(C)c(C(=O)Nc2ccccc2-c2ccccc2)s1 | >=50% |  | <95% | >=95% |  |  |  |  |
| Cc1nc(Cl)c(C(=O)Nc2ccccc2-c2ccccc2)s1 |  |  | <95% | <95% |  |  | <95% | <95% |
| Cc1ccsc1C(=O)Nc1ccccc1-c1ccccc1 | >=95% |  | <95% | >=95% |  |  |  | <95% |
| Cc1occc1C(=O)Nc1ccccc1-c1ccccc1 | >=95% |  | >=95% | <95% |  |  |  | >=95% |
| Cc1nc(C(F)F)c(C(=O)Nc2ccccc2-c2ccccc2)s1 | >=95% |  | >=95% |  |  | >=50% |  | <95% |
| Cc1nc(C(F)(F)F)c(C(=O)Nc2ccccc2-c2ccccc2)s1 | >=95% |  | >=95% |  |  | >=50% |  |  |
| Cn1cc(C(=O)Nc2ccccc2-c2ccccc2)c(Cl)n1 |  |  | <95% | <95% |  |  | <95% | <95% |
| Cc1nn(C)cc1C(=O)Nc1ccccc1-c1ccccc1 | >=50% |  | <95% | <95% |  |  |  |  |
| Cn1cc(C(=O)Nc2ccccc2-c2ccccc2)c(C(F)(F)F)n1 | >=95% |  | <95% |  |  | >=50% |  | >=95% |
| O=C(Nc1ccccc1-c1ccccc1)c1ccccc1Cl | >=95% |  | <95% | <95% |  |  |  |  |
| CC(C)CC(C)c1sccc1NC(=O)c1cn(C)nc1C(F)(F)F (configuration not stated) [PENTHIOPYRAD] | >=95% | >=95% |  |  | >=95% | >=95% |  |  |
